Data on two compounds can be found in patent US20260028334A1, “N-(3-(BENZO[B]THIOPHENE-2-CARBOXAMIDO)-PHENYL)-2,3-DIHYDROBENZO[B][1,4]DIOXINE-6-CARBOXAMIDE DERIVATIVES AND RELATED COMPOUNDS AS LACTATE/ATP PRODUCTION INHIBITORS FOR THE TREATMENT OF CANCER” (WMT Aktiengesellschaft, priority 2022, published 2026).

For assay [1], the system named is HeLa, 4T1, LLC1, A549, MDA-MB-231 and MiaPaCa2 cells. As to the kind of experiment: Assay for inhibition of ATP production (FIG. 1). The format is cell-based. As to conditions: 48 hours treatment, 1.5 to 10000 nM. As to the method:
The assay determines the amount of ATP in cells in culture.
Cells were plated at 4,000 per well in 96-well plate in a medium of high glucose DMEM (PAN) supplemented with 10% FBS (PAN), 2 mM glutamine-alanine (PAN), 2 mM pyruvate (Sigma) and 10 mL/L penicillin-streptomycin and grown at 37° C. in 0.5% O2, 5% CO2 and 75% humidity. For hypoxia, cells were grown and treated in the Whitley H35 Hypoxystation (Don Whitley Scientific) at 37° C. in 0.5% O2, 5% CO2 and 75% humidity. The next day, cells were induced with test compounds (FIG. 1: compounds of examples 3/16, 3/8, 10 at 10000, 3333, 1111, 370, 123, 41, 14, 5 and 1.5 nM; FIGS. 8A and 8B: compounds of example 3/19, 30 and 30/2 at 10000, 3333, 1111, 370, 123, 41, 14, 5 and 1.5 nM), as well as with vehicle (DMSO) only, for 48 hours. After this time, the medium was removed from the cells and intracellular ATP levels were determined using the Promega CellTiter-Glo 2.0 assay protocol (Promega, G9241). To estimate the effect of compounds on the ATP production, sample values were compared to the values of DMSO only. IC50 values were generated by plotting the luciferase counts against compound concentration.

The next assay deals with HIF1a (Homo sapiens (Human), UniProt Q16665). As to the kind of experiment: Western Blot analysis of HIF1a. The class given is cell-based. As to conditions: HeLa cells, 24 hours, 0.1, 0.3 and 1 μM, normoxic and hypoxic conditions, FIG. 4. The method, then:
Western Blot analysis was used to detect amounts of specific protein in differently treated cells. Proteins are separated by size, transferred onto a nitrocellulose membrane and incubated with protein specific antibodies. The density of the observed band is proportional to the amount of the specific protein inside the cell.
Cells were plated at 4×10^6 (for hypoxia) or 3×10^6 (for normoxia) cells per […] plate in medium of high glucose DMEM (PAN) supplemented with 10% FBS (PAN), 2 mM glutamine-alanine (PAN), 2 mM pyruvate (Sigma) and 10 ml/L penicillin-streptomycin (PAN), and grown at 37° C. in 0.5% O2, 5% CO2 and 75% humidity. For hypoxia, cells were grown and treated in the Whitley H35 Hypoxystation (Don Whitley Scientific) at 37° C. in 0.5% O2, 5% CO2 and 75% humidity. Next day, the cells were treated with test compounds (FIG. 4: compounds of example 3/8 and 10 at concentrations 0.1, 0.3 and 1 μM, Bafilomycin A at 20 nM; FIG. 5: compounds of example 3/16, 3/8 and 10 at concentrations 10, 30 and 100 nM, Bafilomycin A at 20 nM), as well as with vehicle (DMSO) only, for 24 h. […] Protein concentration of the sample was measured using the DC Protein Assay Kit (Biorad, 5000112), 22 μg of protein extract per well was loaded onto a precast SDS page gel (Biorad, 1704273). […] The chemiluminescence was measured using chemiluminescent substrate (#34580, Thermo Scientific).

As to `O=C(Nc1ccc(F)c(NC(=O)c2cc3ccc(OCCCN4CCCC4)cc3s2)c1)c1ccc2c(c1)OCCO2` [3/8], the ATP production level entry in assay [1] is reported as “dose-dependent reduction”. The HIF1a protein levels result on HIF1a is listed as “dose-dependent reduction”.
For `Cc1ccc(NC(=O)c2ccc3c(c2)OCCO3)cc1NC(=O)c1cc2cccnc2s1` [3/16], in assay [1], the ATP production level entry is “dose-dependent reduction”.
